Test in all cases: absorbance of reduced form, protection from air oxidation, one-site fit
Common to all, as to assay type: binding

In one assay the target is T1, cytochrome c.
T1 construct: gene CYCS; commercial reduced cytochrome c with heme
To be noted: PBS, 2 mM NH4OAc, ambient, 5 days; apparent, for retaining ferrous heme.

For a further assay, the target named is T2, myoglobin (Homo sapiens, UniProt P02144).
T2 construct: gene MB; commercial protein with heme
T2 sequence (P02144 2-154): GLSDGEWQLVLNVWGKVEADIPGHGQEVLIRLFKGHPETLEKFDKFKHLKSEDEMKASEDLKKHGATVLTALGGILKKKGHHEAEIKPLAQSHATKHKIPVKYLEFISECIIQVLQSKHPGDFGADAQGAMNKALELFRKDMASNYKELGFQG

The next assay deals with T3, hemoglobin (Homo sapiens, UniProt P68871+P69905).
T3 construct: gene HBA1; commercial lyophilized hemoglobin with heme

This is an account of results in article PMC6385989, “Metformin Affects Heme Function as a Possible Mechanism of Action” (G3: Genes|Genomes|Genetics, 2018).

T3 sequence (P69905 2-142): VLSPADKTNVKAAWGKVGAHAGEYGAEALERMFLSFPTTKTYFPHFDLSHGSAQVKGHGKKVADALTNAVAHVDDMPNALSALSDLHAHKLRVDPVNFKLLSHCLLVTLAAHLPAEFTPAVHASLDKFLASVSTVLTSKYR
T3 sequence (P68871 2-147): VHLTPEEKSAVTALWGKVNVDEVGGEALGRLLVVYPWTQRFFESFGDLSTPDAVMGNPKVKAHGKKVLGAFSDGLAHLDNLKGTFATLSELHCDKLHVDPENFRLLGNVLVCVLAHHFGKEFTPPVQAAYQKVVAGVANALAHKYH

`CN(C)C(=N)NC(=N)N` [metformin]: the Kd at cytochrome c turned out to be 1150 µM; at myoglobin it was 570 µM; on hemoglobin, 860 µM.
